According to patent publication US20240150377A1, “MODULATORS OF CYSTIC FIBROSIS TRANSMEMBRANE CONDUCTANCE REGULATOR” (VERTEX PHARMACEUTICALS INCORPORATED, priority 2020, published 2024):
Like-named read-outs stand apart in the source and are kept apart here.

Target: T1, CFTR (Homo sapiens, UniProt P13569, DEL508-508)
T1 construct: endogenous in cells; host or cells: primary human bronchial epithelial cells from CF subjects (F508del/MF-HBE), differentiated at air-liquid interface
Assay: HBE assay: Ussing chamber assay of CFTR-mediated short-circuit currents
Assay type: cell-based
Details: for EC50: read-out: HBE EC50
Outline: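 CFTR-mediated Isc (μA/cm²) equals the peak response to apical 20 μM forskolin minus the residual after a 20 μM each BPO/GlyH-101/CFTR inhibitor 172 cocktail, recorded in Ussing chambers at Vhold 0 mV, 37 °C, pH 7.4, with 30 μM apical amiloride. Cells were F508del/MF HBE cultures preincubated 18-24 h with corrector (concentration range or 10 μM) plus 1 μM ivacaftor in 20% human serum.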

[1] = Table 11, read-out: HBE Max Activity (%)
[2] = Table 10, read-out: HBE Max activity (%)
[3] = Table 13, read-out: HBE Activity at 10 μM (%)

T1 sequence (P13569 with tags, fused parts or gaps DEL508-508): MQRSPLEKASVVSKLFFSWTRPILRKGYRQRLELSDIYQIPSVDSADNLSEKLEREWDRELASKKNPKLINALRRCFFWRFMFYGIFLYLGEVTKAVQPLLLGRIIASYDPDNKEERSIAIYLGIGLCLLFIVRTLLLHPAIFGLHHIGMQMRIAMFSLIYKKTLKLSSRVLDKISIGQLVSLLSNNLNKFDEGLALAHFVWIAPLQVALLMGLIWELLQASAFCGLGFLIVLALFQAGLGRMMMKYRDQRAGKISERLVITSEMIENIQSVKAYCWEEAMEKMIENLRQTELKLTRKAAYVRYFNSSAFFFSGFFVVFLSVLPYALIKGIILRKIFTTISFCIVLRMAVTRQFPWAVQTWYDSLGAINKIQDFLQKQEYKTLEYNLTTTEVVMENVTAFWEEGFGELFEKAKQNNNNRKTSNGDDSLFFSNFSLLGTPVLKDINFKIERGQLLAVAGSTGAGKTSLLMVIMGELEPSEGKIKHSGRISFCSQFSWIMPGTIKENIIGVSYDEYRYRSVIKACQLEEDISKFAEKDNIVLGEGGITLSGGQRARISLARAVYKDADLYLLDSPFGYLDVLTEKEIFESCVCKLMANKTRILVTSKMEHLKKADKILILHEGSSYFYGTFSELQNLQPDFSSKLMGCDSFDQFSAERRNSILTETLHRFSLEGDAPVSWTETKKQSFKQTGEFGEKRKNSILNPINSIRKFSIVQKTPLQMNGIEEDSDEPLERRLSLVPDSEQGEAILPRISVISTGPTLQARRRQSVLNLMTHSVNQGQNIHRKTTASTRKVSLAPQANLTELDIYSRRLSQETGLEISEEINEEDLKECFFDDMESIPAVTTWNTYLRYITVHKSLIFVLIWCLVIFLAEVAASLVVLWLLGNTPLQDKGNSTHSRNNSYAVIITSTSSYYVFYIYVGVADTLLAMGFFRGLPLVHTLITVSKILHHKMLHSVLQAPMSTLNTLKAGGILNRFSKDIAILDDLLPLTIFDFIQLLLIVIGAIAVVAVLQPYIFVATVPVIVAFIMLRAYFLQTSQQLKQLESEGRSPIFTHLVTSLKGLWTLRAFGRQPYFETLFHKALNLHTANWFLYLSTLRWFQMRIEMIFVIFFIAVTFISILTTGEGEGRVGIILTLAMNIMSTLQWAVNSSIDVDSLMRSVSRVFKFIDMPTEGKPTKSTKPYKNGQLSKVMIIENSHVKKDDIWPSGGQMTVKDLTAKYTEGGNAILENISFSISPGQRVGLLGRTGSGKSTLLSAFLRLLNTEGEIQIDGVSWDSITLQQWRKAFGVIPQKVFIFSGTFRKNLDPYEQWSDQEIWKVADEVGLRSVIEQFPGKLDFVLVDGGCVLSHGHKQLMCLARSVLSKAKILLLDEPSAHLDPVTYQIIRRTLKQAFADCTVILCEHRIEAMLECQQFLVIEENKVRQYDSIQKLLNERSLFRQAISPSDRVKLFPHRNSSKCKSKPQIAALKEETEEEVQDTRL

Question: Which EC50 (Table 11) does the source give for `Cc1cccc(C)c1-c1cc2nc(n1)NS(=O)(=O)c1cccc(c1)C(=O)N(Cc1cnc(OC(C)C)cn1)[C@H](CC(C)(C)C)CO2` [Compound 897] here?
Answer: < 1 µM

Question: What about the Emax [1] of the same molecule?
Answer: > 60%

Question: `Cc1cccc(C)c1-c1cc2nc(n1)NS(=O)(=O)c1cccc(c1)C(=O)N(Cc1cnc(N(C)CC(C)(C)C)cn1)[C@H](CC(C)(C)C)CO2` [Compound 899] was tested. Which EC50 (Table 11) did it give?
Answer: < 1 µM

Question: What about the Emax [1] of the same molecule?
Answer: > 60%

Question: For `COCCN(C)c1cnc(CN2C(=O)c3cccc(c3)S(=O)(=O)Nc3nc(cc(-c4c(C)cccc4C)n3)OC[C@H]2CC(C)(C)C)cn1` [Compound 900], which EC50 (Table 11) is on record?
Answer: 1 to 3 µM

Question: And the Emax [1]?
Answer: > 60%

Question: For `Cc1cccc(C)c1-c1cc2nc(n1)NS(=O)(=O)c1cccc(c1)C(=O)N(CC1CCOC1)[C@H](CC(C)(C)C)CO2` (some centres unmarked) [Compound 901], which activation at 10 µM (Table 11, read-out: HBE Activity at 10 μM (%)) is on record?
Answer: > 60%

Question: With `Cc1ccc(C)c(-c2cc3nc(n2)NS(=O)(=O)c2cccc(c2)C(=O)N(Cc2ccc(N4CCCCC4)cn2)[C@H](CC(C)(C)C)CO3)c1C` [Compound 902] as the molecule, how does the Emax [1] read?
Answer: < 30%

Question: Which results are given for `COC1CCC(CN2C(=O)c3cccc(c3)S(=O)(=O)Nc3nc(cc(-c4c(C)cccc4C)n3)OC[C@H]2CC(C)(C)C)CC1` (some centres unmarked) [Compound 903]?
Answer: EC50 (Table 11): < 1 µM; Emax [1]: > 60%

Question: For `Cc1cccc(C)c1-c1cc2nc(n1)NS(=O)(=O)c1cccc(c1)C(=O)N(CC1CCC(O)(C(F)(F)F)CC1)[C@H](CC(C)(C)C)CO2` (some centres unmarked) [Compound 904], which EC50 (Table 10) is on record?
Answer: < 1 µM

Question: Which results are given for `Cc1cccc(C)c1-c1cc2nc(n1)NS(=O)(=O)c1cccc(c1)C(=O)N(CC1CCC(O)(C(F)(F)F)CC1)[C@H](CC(C)(C)C)CO2` (some centres unmarked) [Compound 905]?
Answer: EC50 (Table 10): < 1 µM; Emax [2]: > 60%

Question: Which EC50 (Table 10) does the source give for `Cc1cccc(C)c1-c1cc2nc(n1)NS(=O)(=O)c1cc(n(C)n1)C(=O)N(Cc1ccc(N3CCOCC3)cc1)[C@H](CC(C)(C)C)CO2` [Compound 906] here?
Answer: < 1 µM

Question: And the Emax [2]?
Answer: > 60%

Question: `COC[C@]1(O)CC[C@@H](CN2C(=O)c3cccc(c3)S(=O)(=O)Nc3nc(cc(-c4c(C)cccc4C)n3)OC[C@H]2CC(C)(C)C)CC1` [Compound 907] was tested. Which EC50 (Table 10) did it give?
Answer: < 1 µM

Question: And the Emax [2]?
Answer: > 60%

Question: How did the EC50 (Table 10) turn out when `Cc1cccc(C)c1-c1cc2nc(n1)NS(=O)(=O)c1cccc(c1)C(=O)N(CC1CCC(O)(CO)CC1)[C@H](CC(C)(C)C)CO2` (some centres unmarked) [Compound 908] was run?
Answer: < 1 µM

Question: What about the Emax [2] of the same molecule?
Answer: > 60%

Question: For `Cc1cccc(C)c1-c1cc2nc(n1)NS(=O)(=O)c1cccc(c1)C(=O)N(C[C@H]1CC[C@@H](N3CCCC3=O)CC1)[C@H](CC(C)(C)C)CO2` [Compound 910], which EC50 (Table 10) is on record?
Answer: < 1 µM

Question: And the Emax [2]?
Answer: > 60%

Question: Which results are given for `Cc1cccc(C)c1-c1cc2nc(n1)NS(=O)(=O)c1cccc(c1)C(=O)N(CC1CCC(NCC(=O)O)CC1)[C@H](CC(C)(C)C)CO2` (some centres unmarked) [Compound 911]?
Answer: EC50 (Table 10): 3 to 30 µM; Emax [2]: 30 to 60%

Question: `Cc1cccc(C)c1-c1cc2nc(n1)NS(=O)(=O)c1cccc(c1)C(=O)N(CC1CCC(NCC(=O)O)CC1)[C@H](CC(C)(C)C)CO2` (some centres unmarked) [Compound 912] was tested. Which activation at 10 µM (Table 10, read-out: HBE activity at 10 (μM) (%)) did it give?
Answer: < 300%

Question: Which results are given for `Cc1cccc(C)c1-c1cc2nc(n1)NS(=O)(=O)c1cccc(c1)C(=O)N(CC1CCC(N3C[C@@H](C)O[C@@H](C)C3)CC1)[C@H](CC(C)(C)C)CO2` (some centres unmarked) [Compound 913]?
Answer: EC50 (Table 10): < 1 µM; Emax [2]: > 60%

Question: How did the EC50 (Table 10) turn out when `Cc1cccc(C)c1-c1cc2nc(n1)NS(=O)(=O)c1cccc(c1)C(=O)N(CC1CCC(N3C[C@@H](C)O[C@@H](C)C3)CC1)[C@H](CC(C)(C)C)CO2` (some centres unmarked) [Compound 914] was run?
Answer: < 1 µM

Question: With `Cc1cccc(C)c1-c1cc2nc(n1)NS(=O)(=O)c1cccc(c1)C(=O)N(Cc1cccc(Br)n1)[C@H](CC(C)(C)C)CO2` [Compound 992] as the molecule, how does the activation at 10 µM [3] read?
Answer: > 600%

Question: Which activation at 10 µM [3] does the source give for `Cc1cccc(C)c1-c1cc2nc(n1)NS(=O)(=O)c1cccc(c1)C(=O)N(Cc1ccc(Br)cn1)[C@H](CC(C)(C)C)CO2` [Compound 993] here?
Answer: > 600%

Question: With `Cc1cccc(C)c1-c1cc2nc(n1)NS(=O)(=O)c1cccc(c1)C(=O)N(Cc1cc(N(C)CC(C)(C)C)ccn1)[C@H](CC(C)(C)C)CO2` [Compound 994] as the molecule, how does the activation at 10 µM [3] read?
Answer: > 600%

Question: Which activation at 10 µM [3] does the source give for `Cc1cccc(C)c1-c1cc2nc(n1)NS(=O)(=O)c1cccc(c1)C(=O)N(Cc1cc(NC(C)C)ccn1)[C@H](CC(C)(C)C)CO2` [Compound 995] here?
Answer: > 600%

Question: Which EC50 (Table 13) does the source give for `Cc1cccc(C)c1-c1cc2nc(n1)NS(=O)(=O)c1cccc(c1)C(=O)N(Cc1ccc(NC(C)C)cn1)[C@H](CC(C)(C)C)CO2` [Compound 996] here?
Answer: < 1 µM

Question: And the Emax (Table 13, read-out: HBE Max Activity (%))?
Answer: > 60%

Question: With `Cc1cccc(C)c1-c1cc2nc(n1)NS(=O)(=O)c1cccc(c1)C(=O)N(CC1(N(C)C)CC3(CCC3)C1)[C@H](CC(C)(C)C)CO2` [Compound 997] as the molecule, how does the activation at 10 µM [3] read?
Answer: > 600%

Question: `Cc1cccc(C)c1-c1cc2nc(n1)NS(=O)(=O)c1cccc(c1)C(=O)N(Cc1cc3ccoc3cn1)[C@H](CC(C)(C)C)CO2` [Compound 998] was tested. Which activation at 10 µM [3] did it give?
Answer: > 600%
